Measurements taken from patent publication US20240366571A1, “MODULATORS OF SK4 POTASSIUM CHANNEL AND USES THEREOF” (Ramot at Tel-Aviv University Ltd., priority 2022, published 2024).
Entries after “also recorded” stand apart in the source; their conditions may differ.

Tests used:
isolated rat hearts = assay: Langendorff perfused isolated rat hearts: electrophysiology and hemodynamics; conditions: 10 μM
Procedure: (§1) Animals: Adult male Sprague-Dawley rats (n=56, 200-250 grams) and Guinea pigs (n=19, 400-700 grams) obtained from Envigo Laboratories (Jerusalem, Israel) were bred and grown in Ben-Gurion University of the Negev, Israel. Experiments in rats and guinea pigs were approved by the institutional ethics committee of Ben-Gurion University of the Negev, Israel (Protocol No. IL-24-05-2020(D) and were carried out in strict accordance with the Guide for the Care and Use of Laboratory Animals of the National Institutes of Health. The animals were kept under standardized conditions: 12:12 light: dark cycles at 20-24° C. and 30-70% relative humidity.
(§2) Perfused isolated hearts—Langendorff method: The isolated heart experiment setup was performed as described in Etzion et al., Am J Physiol Heart Circ Physiol (2008) 295, H1460-1469; and Mor et al., J Pharmacol Exp Ther (2013) 344, 59-67.]. Briefly, each animal was anesthetized with 2% isoflurane and an intraperitoneal (IP) injection of pentobarbital (60 mg/kg), followed by IP injection of Heparin (1000 U/kg). The heart was rapidly excised and placed into ice-cold Tyrode's buffer solution (consisted of 140 mM NaCl, 5.4 mM KCl, 0.5 mM MgCl2, 2.5 mM CaCl2, 0.39 mM NaH2PO4, 10 mM HEPES and 11 mM glucose, and titrated to pH 7.4 with NaOH). The aorta was cannulated and connected to a pre-heated (37° C.) and oxygenated perfusion system with Tyrode's solution while perfusion pressure was maintained at about 70 mmHg throughout the experiment. Prior to the experiment, the heart was left in Tyrode's solution to stabilize for 20 minutes for hemodynamic measurements, the left atrial appendage was excised, and a collapsed latex balloon was inserted into the left ventricle (LV) through the mitral valve. Once positioned, the balloon was filled with double distilled water reaching an end-diastolic pressure of 10-15 mmHg. Coronary perfusion pressure and LV pressure were recorded by a pressure amplifier (ETH-256C amplifier and B-100 probes, iWorx, NH, USA). Electrophysiological signals were recorded from the high right atrium (HRA) via a miniature quadripolar hook electrode (for simultaneous pacing and recording) and from the LV via a bipolar hook electrode. Electrical signals were filtered (1-2 kHz) and recorded by two voltage amplifiers (Model 3000, A-M Systems, Carlsberg, WA, USA). Signals were interfaced with a PC using an A/D converter (PCI-6024E, National Instruments, Austin TX, USA) and a custom-designed program developed with LabVIEW programing language (National Instruments, Austin, TX, USA) to control signal acquisition, data saving and off-line analysis. Measured physiological parameters during the experiment included perfusion flow (ml/minute) as a marker for coronary perfusion pressure, LV developed pressure, dP/dt±(representing the rate of rise of left ventricular pressure during isovolumetric contraction as a marker for LV contractility), heart rate, PR, and RR intervals. Tram-34 and BA6b9 were applied for a 20-minutes incubation period and physiological parameters were recorded.
(§3) Effective refractory period measurements: Using both custom-made quadripolar electrode inserted on the HRA and two bipolar electrodes (recording and pacing) on the LV, allowed measurement of the effective refractory period (ERP) at the atrial level (atrial effective refractory period, AERP), atrioventricular level (AVERP), and ventricular level (VERP). For ERP measurement, a programmed S1S2 stimulation protocol was performed using double diastolic threshold intensity. The protocol consisted of ten S1-S2 intervals of 150 milliseconds (ms) followed by an S1-S2 interval that was reduced by 1 ms each time, until pacing capture failed three consecutive times. AERP, AVERP, and VERP were measured and recorded prior and after exposure to the used inhibitor, either Tram-34 or BA6b9.

[1] = tested on: isolated guinea pig hearts; assay: Langendorff perfused isolated guinea pig hearts; conditions: 10 μM
Procedure: as §1, §2, §3

human SK4 = molecular target: T1, human SK4 (Homo sapiens, UniProt O15554); assay: Whole-cell patch-clamp of WT SK4 K+ currents in transfected CHO cells; assay type: cell-based
T1 construct: expressed in transfected cells; host or cells: CHO cells
Procedure: Constructs: For CHO cell transfection, the following were cloned: human SK1, rat SK2, human SK3, and rat calmodulin into the pcDNA3 vector, human SK4 into pEGFP-C1 vector, and PIP4,5-kinase into an IRES-dsRed plasmid. The mutations were introduced using the PCR-based QuikChange™ site-directed mutagenesis (Stratagene®) and were verified by full sequencing of the entire plasmid vector.
Cell Culture and Transfection: Chinese hamster ovary (CHO) cells were grown in Dulbecco's modified Eagle's medium supplemented with 2 millimolar (mM) glutamine, 10% fetal calf serum, and antibiotics. In brief, 40,000 cells seeded on poly-L-lysine-coated glass coverslips (13 millimeter (mm) in diameter) in a 24-multiwell plate were transfected with 0.5 microgram (μg) pEGFP-SK4/0.5 μg mutant SK4, 1.2 μg dsRed-PIP4,5-kinase or with 1 μg SK1/SK2/SK3 together with pIRES-CD8 (0.3 μg) as a marker for transfection. Transfection was performed using TransIT-LT1 Transfection Reagent (Mirus Bio) according to the manufacturer's protocol. For electrophysiology, transfected cells were visualized approximately 40 hours after transfection with a Zeiss Axiovert 35 inverted florescence microscope.
Whole-cell patch-clamp recording: Voltage-clamp recordings were performed using the whole-cell configuration of the patch-clamp technique. Signals were amplified using an […] patch-clamp amplifier (Molecular Devices), sampled at 5 kHz and filtered at 2.4 kHz via a four pole Bessel low pass filter. Data were acquired using pClamp™ 10.5 software in conjunction with an Axon™ DigiData® 1440A interface (Molecular Devices). The patch pipettes were pulled from borosilicate glass (Harvard Apparatus) with a resistance of 3-5 megaohms (MΩ). The intracellular pipette solution contained 130 mM KCl, 5 mM EGTA, 10 mM HEPES, pH 7.3 (adjusted with KOH), and CaCl2 calculated for a final concentration of 1 μM free-Ca^2+, by MAXCHELATOR (WEBMAXC STANDARD) software, with sucrose added to adjust osmolarity to 290 mosM. The external solution (310 mosM) contained 140 mM NaCl, 4 mM KCl, 1.8 mM CaCl2, 1.2 mM MgCl2, 11 mM glucose, and 5.5 mM HEPES adjusted with NaOH to pH 7.3. CHO cells were held at −90 millivolt (mV) and SK4 K^+ currents were activated using a voltage ramp protocol from −100 mV to +60 mV for 150 milliseconds. Electrophysiological data analysis was performed using the Clampfit program (pClamp™ 10.5; Molecular Devices).
Some of the compounds were tested by comparing trace of WT SK4 channel currents in the absence and presence of 20 μM of the tested compound.

Q: What does the source list for CCCCCCCn1c(=O)oc2ccccc21 [BA6b9, 3-heptylbenzo[d]oxazol-2(3H)-one]?
A: AERP (effect) (isolated rat hearts): prolonged; AVERP (effect) (isolated rat hearts): prolonged; VERP (effect) (isolated rat hearts): did not change; coronary flow (perfusion flow velocity) (isolated rat hearts): minimal effect; left ventricular filling pressure (developed pressure) (isolated rat hearts): reduced; maximal pressure change in left ventricular contractility (dP/dt max) (isolated rat hearts): does not effect it; minimal pressure change in left ventricular contractility (dP/dt min) (isolated rat hearts): does not effect it; AERP (isolated rat hearts; from 56 ms before compound): 63 ms; PR interval (isolated rat hearts; from 56 ms before compound): 68 ms; AVERP (isolated rat hearts; from 84 ms before compound): 89 ms; heart rate (isolated rat hearts; from 228 bpm before compound): 196 bpm; AERP (effect) [1]: significantly prolonged; AVERP (effect) [1]: significantly prolonged; PR interval (effect) [1]: increasing PR interval; VERP (effect) [1]: significantly prolonged; action potential activation current (atrial and ventricular pacing thresholds) [1]: Neither Tram-34 nor BA6b9 affected; coronary flow (perfusion flow velocity) [1]: no effect; heart rate (effect) [1]: decreased heart rate; inhibition at 20 µM (human SK4; CHO, 20 μM, whole-cell): 56%; SK4 K+ channel modulating activity (human SK4; WT SK4 currents in absence and presence of 20 μM compound): inhibited; also recorded: Inhibitor
